According to BindingDB's records for doi:10.1016/j.bmc.2005.09.061 (Fujisawa Pharmaceutical, 2006):

What was measured:
[1] = molecular target: Poly [ADP-ribose] polymerase 2 (Mus musculus, UniProt O88554); assay: PARP Enzyme Inhibition Assay; conditions: 25 °C
Experimental: (§1) To assess the inhibitory activity of novel inhibitors, the PARP enzyme assay was carried out in reaction mixture consisting of activated salmon testes DNA, [adenylate-32P]-NAD, recombinant PARP enzyme, and various concentrations of PARP inhibitors. The reaction mixture was incubated at room temperature for 15 min, and the reaction was terminated by adding trichloroacetic acid. The precipitate was transferred onto GF/B filter. After the filter was washed and dried, the radioactivity was determined by liquid scintillation counting. IC50 values were calculated from the concentration dependence of the inhibition curves by using computer-assisted non-linear regression analyses.

[2] = molecular target: Poly [ADP-ribose] polymerase 1 (Homo sapiens, UniProt P09874); assay: PARP Enzyme Inhibition Assay; conditions: pH 8; 23 °C
Experimental: as §1

Chain of Poly [ADP-ribose] polymerase 1 (P09874 whole entry): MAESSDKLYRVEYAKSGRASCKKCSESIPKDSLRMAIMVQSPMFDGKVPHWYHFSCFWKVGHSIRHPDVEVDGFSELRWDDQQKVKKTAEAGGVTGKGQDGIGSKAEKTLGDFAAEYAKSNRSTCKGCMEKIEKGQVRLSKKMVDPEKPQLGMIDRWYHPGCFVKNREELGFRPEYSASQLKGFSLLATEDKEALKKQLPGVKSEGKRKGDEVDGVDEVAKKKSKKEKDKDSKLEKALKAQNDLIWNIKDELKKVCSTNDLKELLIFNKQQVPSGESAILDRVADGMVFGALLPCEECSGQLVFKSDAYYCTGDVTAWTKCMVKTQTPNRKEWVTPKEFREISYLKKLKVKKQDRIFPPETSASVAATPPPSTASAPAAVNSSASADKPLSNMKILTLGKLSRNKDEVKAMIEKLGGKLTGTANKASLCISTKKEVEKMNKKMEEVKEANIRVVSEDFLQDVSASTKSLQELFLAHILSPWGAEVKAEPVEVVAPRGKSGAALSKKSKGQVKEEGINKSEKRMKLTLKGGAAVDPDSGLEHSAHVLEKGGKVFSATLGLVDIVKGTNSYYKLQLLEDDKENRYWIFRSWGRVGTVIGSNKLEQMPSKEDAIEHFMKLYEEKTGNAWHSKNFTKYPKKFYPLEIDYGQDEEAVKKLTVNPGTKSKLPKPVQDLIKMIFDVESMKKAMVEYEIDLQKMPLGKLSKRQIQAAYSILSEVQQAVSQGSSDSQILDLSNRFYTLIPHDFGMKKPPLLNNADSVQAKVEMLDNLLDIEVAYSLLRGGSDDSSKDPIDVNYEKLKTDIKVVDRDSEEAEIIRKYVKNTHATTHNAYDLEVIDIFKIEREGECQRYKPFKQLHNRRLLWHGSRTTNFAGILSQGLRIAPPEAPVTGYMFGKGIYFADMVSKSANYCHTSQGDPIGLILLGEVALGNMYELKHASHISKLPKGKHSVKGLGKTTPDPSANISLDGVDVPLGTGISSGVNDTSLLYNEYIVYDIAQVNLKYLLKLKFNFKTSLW
Chain of Poly [ADP-ribose] polymerase 2 (O88554 whole entry): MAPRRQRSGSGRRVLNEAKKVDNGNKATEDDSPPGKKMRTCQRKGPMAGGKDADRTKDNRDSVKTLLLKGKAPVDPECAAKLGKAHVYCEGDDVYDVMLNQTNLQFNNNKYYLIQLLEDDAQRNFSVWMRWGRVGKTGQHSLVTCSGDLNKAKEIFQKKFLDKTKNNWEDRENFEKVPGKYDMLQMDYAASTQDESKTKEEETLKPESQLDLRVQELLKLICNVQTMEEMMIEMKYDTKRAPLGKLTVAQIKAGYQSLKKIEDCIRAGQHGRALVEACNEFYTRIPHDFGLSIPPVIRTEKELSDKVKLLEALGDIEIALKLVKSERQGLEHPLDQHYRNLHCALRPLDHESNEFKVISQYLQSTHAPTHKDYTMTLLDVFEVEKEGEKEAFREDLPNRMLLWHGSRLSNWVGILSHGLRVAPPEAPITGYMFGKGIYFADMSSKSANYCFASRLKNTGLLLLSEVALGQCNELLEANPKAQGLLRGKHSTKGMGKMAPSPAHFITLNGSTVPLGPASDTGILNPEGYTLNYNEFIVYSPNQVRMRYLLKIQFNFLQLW

SMILES | IC50 [1] [nM] | IC50 [2] [nM]
Cc1nc2cccc(Cl)c2c(=O)[nH]1 [5-chloro-2-methyl-3,4-dihydroquinazolin-4-one] | 660 | –
O=c1[nH]c(=O)n(CCCCN2CC=C(c3ccccc3)CC2)c2ccccc12 [1-[4-(4-phenyl-1,2,3,6-tetrahydropyridin-1-yl)butyl]-1,2,3,4-tetrahydroquinazoline-2,4-dione] | 70 | 120
NC(=O)c1cccc2ncc(-c3ccccc3)nc12 [3-phenylquinoxaline-5-carboxamide] | 14 | 131
NC(=O)c1cccc(N)c1 | 9810 | –
NC(=O)c1cccc2ncc(-c3ccc(C(F)(F)F)cc3)nc12 | 11 | 118
O=c1[nH]nc(CCCCN2CC=C(c3ccccc3)CC2)c2ccccc12 [4-[4-(4-Phenyl-3,6-dihydro-2H-pyridin-1-yl)-butyl]-2H-phthalazin-1-one] | 90 | 120
N#Cc1ccc(-c2cnc3cccc(C(N)=O)c3n2)cc1 | 8 | 101
NC(=O)c1cccc2ncc(-c3ccc(Cl)cc3)nc12 [3-(4-chlorophenyl)quinoxaline-5-carboxamide] | 7 | 33
O=c1[nH]c(=O)n(CCCCC2CC=C(c3ccccc3)CC2)c2cccc(F)c12 (stereo unspecified) [5-fluoro-1-[4-(4-phenylcyclohex-3-en-1-yl)butyl]-1,2,3,4-tetrahydroquinazoline-2,4-dione] | – | > 1000
N#Cc1ccc(C2=CCN(CCCc3nc4c(Cl)cccc4c(=O)[nH]3)CC2)cc1 | 87 | 3
Cc1cccc2c(=O)[nH]c(CCCN3CC=C(c4ccc(F)cc4)CC3)nc12 | 167 | 16
O=c1[nH]c2ccc(CCCN3CC=C(c4ccccc4)CC3)cc2c2ccccc12 | 84 | 82
O=c1[nH]nc(CCCCN2CC=C(c3ccc(F)cc3)CC2)c2ccccc12 [4-{4-[4-(4-fluorophenyl)-1,2,3,6-tetrahydropyridin-1-yl]butyl}-1,2-dihydrophthalazin-1-one] | 84 | 49
COc1ccc(-c2cnc3cccc(C(N)=O)c3n2)cc1 | 8 | 71
O=c1[nH]c(CCCN2CC=C(c3ccc(F)cc3)CC2)nc2c(Cl)cccc12 [8-chloro-2-{3-[4-(4-fluorophenyl)-1,2,3,6-tetrahydropyridin-1-yl]propyl}-3,4-dihydroquinazolin-4-one] | 500 | –
O=c1[nH]c(CCCN2CC=C(c3ccccc3)CC2)nc2ccccc12 [2-[3-(4-phenyl-1,2,3,6-tetrahydropyridin-1-yl)propyl]-3,4-dihydroquinazolin-4-one] | 608 | 21
O=c1[nH]c(CCCN2CC=C(c3ccccc3)CC2)nc2cccc(Cl)c12 [5-Chloro-2-[3-(4-phenyl-3,6-dihydro-2H-pyridin-1-yl)-propyl]-3H-quinazolin-4-one] | 630 | 68
O=c1[nH]c(CCCN2CC=C(c3ccccc3)CC2)nc2c(Cl)cccc12 | 610 | 23
NC(=O)c1cccc2ncc(-c3ccc(N)cc3)nc12 [3-(4-aminophenyl)quinoxaline-5-carboxamide] | 9 | 87
O=c1[nH]c(CCCN2CCN(c3ccc(Cl)cc3)CC2)nc2ccccc12 [2-{3-[4-(4-chlorophenyl)piperazin-1-yl]propyl}-3,4-dihydroquinazolin-4-one] | 300 | 11
